Source: PubChem BioAssay (NCI)
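Abbreviation: GI50, concentration required for 50% inhibition of growth. TGI: total growth inhibition.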

Columns and labels:
Test in all cases: growth of human tumour cells (NCI), 384-well format
[1] = system: 786-0 renal
[2] = system: A498 renal
[3] = system: A549 NSCLC
[4] = system: ACHN renal
[5] = system: BT-549 breast
[6] = system: CAKI-1 renal
[7] = system: CCRF-CEM leukemia
[8] = system: COLO 205 colon
[9] = system: DU-145 prostate
[10] = system: EKVX NSCLC
[11] = system: HCC-2998 colon
[12] = system: HCT-116 colon
[13] = system: HCT-15 colon
[14] = system: HL-60(TB) leukemia
[15] = system: HOP-62 NSCLC
[16] = system: HOP-92 NSCLC
[17] = system: HS 578T breast
[18] = system: HT29 colon
[19] = system: IGROV1 ovarian
[20] = system: K-562 leukemia
[21] = system: KM12 colon
[22] = system: LOX IMVI melanoma
[23] = system: M14 melanoma
[24] = system: MALME-3M melanoma
[25] = system: MCF7 breast
[26] = system: MDA-MB-231 breast
[27] = system: MDA-MB-435 melanoma
[28] = system: MDA-MB-468 breast
[29] = system: MOLT-4 leukemia
[30] = system: NCI-H226 lung
[31] = system: NCI-H23 lung
[32] = system: NCI-H322M lung
[33] = system: NCI-H460 NSCLC
[34] = system: NCI-H522 lung
[35] = system: NCI/ADR-RES ovarian
[36] = system: OVCAR-3 ovarian
[37] = system: OVCAR-4 ovarian
[38] = system: OVCAR-5 ovarian
[39] = system: OVCAR-8 ovarian
[40] = system: PC-3 prostate
[41] = system: RPMI-8226 leukemia
[42] = system: RXF 393 renal
[43] = system: SF-268 CNS
[44] = system: SF-295 CNS
[45] = system: SF-539 CNS
[46] = system: SK-MEL-2 melanoma
[47] = system: SK-MEL-28 melanoma
[48] = system: SK-MEL-5 melanoma
[49] = system: SK-OV-3 ovarian
[50] = system: SN12C renal
[51] = system: SNB-19 CNS
[52] = system: SNB-75 CNS
[53] = system: SW-620 colon
[54] = system: T-47D breast
[55] = system: TK-10 renal
[56] = system: U251 glioblastoma
[57] = system: UACC-257 melanoma
[58] = system: UACC-62 melanoma
[59] = system: UO-31 renal

Q: Which results are given for `CC[C@H](CC#N)OC(=O)N[C@@H](C)c1cccc(NC(=O)Nc2ccc(-c3cnco3)c(OC)c2)c1`?
A: GI50 [1]: 154 nM; TGI [1]: 1870 nM; GI50 [2]: 56.9 nM; TGI [2]: 1720 nM; GI50 [3]: 65.7 nM; TGI [3]: 1680 nM; GI50 [4]: 210 nM; TGI [4]: 12700 nM; GI50 [5]: 115 nM; TGI [5]: 951 nM; GI50 [6]: 243 nM; TGI [6]: 11900 nM; GI50 [7]: 64.9 nM; TGI [7]: 248 nM; GI50 [8]: 46.3 nM; TGI [8]: 13100 nM; GI50 [9]: 168 nM; TGI [9]: 11000 nM; GI50 [10]: 349 nM; TGI [10]: 12300 nM; GI50 [11]: 212 nM; TGI [11]: 1450 nM; GI50 [12]: 75 nM; TGI [12]: 10600 nM; GI50 [13]: 286 nM; TGI [13]: 11800 nM; GI50 [14]: 53.9 nM; TGI [14]: 220 nM; GI50 [15]: 258 nM; TGI [15]: 10700 nM; GI50 [16]: 637 nM; TGI [16]: 22700 nM; GI50 [17]: 171 nM; TGI [17]: 1540 nM; GI50 [18]: 137 nM; TGI [18]: > 100000 nM; GI50 [19]: 60.7 nM; TGI [19]: 10600 nM; GI50 [20]: 48.4 nM; TGI [20]: 11200 nM; GI50 [21]: 168 nM; TGI [21]: 12400 nM; GI50 [22]: 68.9 nM; TGI [22]: 1400 nM; GI50 [23]: 159 nM; TGI [23]: 1140 nM; GI50 [24]: 168 nM; TGI [24]: 13100 nM; GI50 [25]: 159 nM; TGI [25]: 11300 nM; GI50 [26]: 300 nM; TGI [26]: 20600 nM; GI50 [27]: 353 nM; TGI [27]: 14600 nM; GI50 [28]: 140 nM; TGI [28]: 825 nM; GI50 [29]: 20 nM; TGI [29]: 36.7 nM; GI50 [30]: 297 nM; TGI [30]: 10500 nM; GI50 [31]: 154 nM; TGI [31]: 664 nM; GI50 [32]: 275 nM; TGI [32]: 14700 nM; GI50 [33]: 74 nM; TGI [33]: 263 nM; GI50 [34]: 428 nM; TGI [34]: 11900 nM; GI50 [35]: 5600 nM; TGI [35]: 18000 nM; GI50 [36]: 57.5 nM; TGI [36]: 10600 nM; GI50 [37]: 373 nM; TGI [37]: 15800 nM; GI50 [38]: 270 nM; TGI [38]: > 100000 nM; GI50 [39]: 354 nM; TGI [39]: 13900 nM; GI50 [40]: 178 nM; TGI [40]: 10900 nM; GI50 [41]: 216 nM; TGI [41]: 957 nM; GI50 [42]: 168 nM; TGI [42]: 660 nM; GI50 [43]: 244 nM; TGI [43]: 11000 nM; GI50 [44]: 316 nM; TGI [44]: 12000 nM; GI50 [45]: 108 nM; TGI [45]: 8860 nM; GI50 [46]: 506 nM; TGI [46]: 4370 nM; GI50 [47]: 126 nM; TGI [47]: 11000 nM; GI50 [48]: 78.7 nM; TGI [48]: 348 nM; GI50 [49]: 57.4 nM; TGI [49]: 898 nM; GI50 [50]: 314 nM; TGI [50]: 16600 nM; GI50 [51]: 166 nM; TGI [51]: > 100000 nM; GI50 [52]: 685 nM; TGI [52]: 14300 nM; GI50 [53]: 77.7 nM; TGI [53]: 12000 nM; GI50 [54]: 486 nM; TGI [54]: 10600 nM; GI50 [55]: 416 nM; TGI [55]: 18500 nM; GI50 [56]: 45.5 nM; TGI [56]: 11400 nM; GI50 [57]: 288 nM; TGI [57]: 11500 nM; GI50 [58]: 236 nM; TGI [58]: 10600 nM; GI50 [59]: 354 nM; TGI [59]: 8350 nM
